Results from publication doi:10.1101/2025.10.12.681846v1 (bioRxiv, 2025).

What was measured:
[1] = Biodistribution and intra-tissue distribution in diabetic mice; format: in vivo; conditions: three days after s.c. 10 mg/kg; CD31 staining
[2] = SPECT/CT imaging of 131I-labelled insulin-129 in diabetic mice; format: in vivo; conditions: s.c. 10 mg/kg
type 1 diabetic mice = assay: In vivo glucose-responsive insulin release in mice; conditions: 400 U/kg; i.p. glucose 3.0 g/kg at three and six hours; n = 5
[3] = test system: STZ-induced type 1 diabetic mice; assay: Type 1 diabetes treatment study in mice; format: in vivo, C57BL/6 mice
type 1 diabetic minipigs = assay: Type 1 diabetes treatment study in minipigs; format: in vivo, Bama minipigs

Substance: Cy5-labelled insulin-129: insulin-129 labelled with Sulfo-Cy5-NHS
- vascular association within the major organs [1]: high level of vascular association

Substance: ^131I-labelled insulin-129: insulin-129 labelled by 131I using the chloramine T labelling method
- skin absorption [2]: rapid skin absorption

Substance: insulin glargine [reference compound]
- BG-correlated changes of insulin level (type 1 diabetic mice): did not display BG-correlated changes
- glycaemic control with consecutive daily injections ([3]; 40 U/kg every 24 hours for seven days, n = 5): poor glycaemic control
- time normoglycaemia maintained ([3]; single s.c. 40 U/kg (equivalent to 1.46 mg/kg), n = 5): 4 h
- time normoglycaemia maintained ([3]; single s.c. 400 U/kg (equivalent to 14.6 mg/kg), n = 5): 12 h
- time BG regulated in the normal range (type 1 diabetic minipigs; Pig-Ⅰ, single dose 0.25 U/kg): less than 12 hours
- time BG regulated in the normal range (type 1 diabetic minipigs; Pig-Ⅱ, single dose 0.33 U/kg): less than 24 hours
- time BG regulated in the normal range (type 1 diabetic minipigs; Pig-Ⅲ, single dose 0.48 U/kg): less than 12 hours
- time BG remained within the target range (70 to 200 mg/dL) (type 1 diabetic minipigs; n = 3, statistical time 0-168 h for insulin-129 and 0-24 h for Lantus): 42.9%

Substance: insulin icodec [reference compound]
- duration relative to insulin-129 at 12 mg/kg ([3]; 400 U/kg): roughly one-third
- time normoglycaemia maintained ([3]; single s.c. 400 U/kg (equivalent to 15.3 mg/kg), n = 5): approximately 72 hours
